# Where two headings read alike, the source gives them in different places. Marks after values point to notes of the source that are not given here.
# What was measured:
# [1] = molecular target: T1, human µOR (Homo sapiens, UniProt P35372); experiment: [35S]GTPγS binding assay, CHO-hµOR membranes; assay type: biochemical; conditions: for µOR % stim.: [35S]GTPγS binding, relative to DAMGO
# T1 construct: host or cells: CHO cells (CHO-hµOR; CHO-hµOR-p22F for the cAMP assay)
# [2] = tested on: mice; experiment: Radiant heat tail-flick test in mice; assay type: in vivo; conditions: Mus musculus, sc, 0.5 h, s.c., at 30 min (peak effect), n = 5–6 mice per group, read-out: ED50 (95% CL)
# [3] = molecular target: T1, human µOR; experiment: biochemical; assay type: binding
# [4] = molecular target: T2, human δOR (Homo sapiens, UniProt P41143); experiment: [35S]GTPγS binding assay, CHO-hδOR membranes; assay type: biochemical; conditions: for δOR % stim. / fold higher δOR agonist potency vs. N-methyl counterpart: [35S]GTPγS binding; for δOR % stim.: relative to DPDPE; for fold higher δOR agonist potency vs. N-methyl counterpart: vs. 14-OMO (3) and 14-MM (4)
# T2 construct: host or cells: CHO cells (CHO-hδOR; CHO-hδOR-p22F for the cAMP assay)
# [5] = molecular target: T2, human δOR; experiment: Competition binding assay, CHO-hδOR cell membranes ([3H]Diprenorphine)
# [6] = molecular target: T2, human δOR; experiment: Forskolin-induced cAMP accumulation assay, CHO-hδOR-p22F cells; assay type: cell-based; conditions: for Emax: read-out: δOR % stim.
# [7] = molecular target: T3, human κOR (Homo sapiens, UniProt P41145); experiment: biochemical; assay type: binding
# T3 construct: host or cells: CHO cells (CHO-hκOR)
# [8] = molecular target: T1, human µOR; experiment: cell-based; assay type: cell-based; conditions: for Emax: read-out: µOR % stim.
# [9] = molecular target: T3, human κOR; experiment: [35S]GTPγS binding assay, CHO-hκOR membranes; assay type: biochemical; conditions: for κOR % stim.: [35S]GTPγS binding, relative to U69,593
# [10] = molecular target: T3, human κOR; conditions: cited from earlier work
# [11] = molecular target: T2, human δOR; conditions: [35S]GTPγS binding; relative to DPDPE; cited from earlier work
# [12] = tested on: mice; conditions: s.c., cited from earlier work; for ED50 (95% CL): tail-flick, at 30 min (peak effect)
# [13] = tested on: mice; conditions: hot-plate test, s.c.; cited from earlier work
# [14] = molecular target: T1, human µOR; conditions: cited from earlier work
# [15] = tested on: mice; experiment: Rotarod assay in mice; assay type: in vivo; conditions: 30 min after s.c. administration, doses equivalent to a 3- to 4-fold the antinociceptive ED50 dose
# T2 sequence (P41143 whole entry): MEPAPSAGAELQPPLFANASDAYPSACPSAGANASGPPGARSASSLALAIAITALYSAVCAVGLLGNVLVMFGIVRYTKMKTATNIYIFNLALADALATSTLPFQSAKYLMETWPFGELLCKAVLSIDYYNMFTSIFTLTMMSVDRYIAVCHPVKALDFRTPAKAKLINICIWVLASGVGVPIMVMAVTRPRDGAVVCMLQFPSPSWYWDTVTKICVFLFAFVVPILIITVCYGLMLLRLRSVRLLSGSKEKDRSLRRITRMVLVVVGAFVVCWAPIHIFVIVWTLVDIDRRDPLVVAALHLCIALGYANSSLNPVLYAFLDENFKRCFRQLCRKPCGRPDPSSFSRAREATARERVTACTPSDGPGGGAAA
# T3 sequence (P41145 whole entry): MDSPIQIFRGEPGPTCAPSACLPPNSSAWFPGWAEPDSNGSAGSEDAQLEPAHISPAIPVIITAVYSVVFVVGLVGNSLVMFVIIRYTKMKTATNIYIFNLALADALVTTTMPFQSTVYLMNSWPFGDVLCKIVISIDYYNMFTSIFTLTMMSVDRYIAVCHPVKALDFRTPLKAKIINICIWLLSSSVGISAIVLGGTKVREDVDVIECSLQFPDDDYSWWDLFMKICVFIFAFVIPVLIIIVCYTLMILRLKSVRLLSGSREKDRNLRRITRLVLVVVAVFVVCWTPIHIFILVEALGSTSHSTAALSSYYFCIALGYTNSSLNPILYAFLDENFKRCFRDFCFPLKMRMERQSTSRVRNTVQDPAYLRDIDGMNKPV
# T1 sequence (P35372 whole entry): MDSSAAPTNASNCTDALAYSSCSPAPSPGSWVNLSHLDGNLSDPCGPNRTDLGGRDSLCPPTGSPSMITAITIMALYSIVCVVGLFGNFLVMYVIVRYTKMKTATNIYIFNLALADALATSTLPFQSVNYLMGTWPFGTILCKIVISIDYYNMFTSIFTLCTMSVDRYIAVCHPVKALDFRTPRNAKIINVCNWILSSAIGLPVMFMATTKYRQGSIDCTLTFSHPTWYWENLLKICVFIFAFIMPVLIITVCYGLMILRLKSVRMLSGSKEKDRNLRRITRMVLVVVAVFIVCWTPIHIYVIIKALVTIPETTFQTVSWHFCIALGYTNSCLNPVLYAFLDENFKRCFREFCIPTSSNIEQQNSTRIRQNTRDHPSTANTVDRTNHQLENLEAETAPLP
SMILES,EC50 [1] [nM],µOR % stim. [1] [%],ED50 [2] [mg/kg],Ki ratio δOR/µOR [3],Ki ratio κOR/µOR [3],EC50 [4] [nM],δOR % stim. [4] [%],Ki [5] [nM],EC50 [6] [nM],Emax [6] [%],Ki [7] [nM],EC50 [8] [nM],Emax [8] [%],EC50 [9] [nM],κOR % stim. [9] [%],Ki [3] [nM],ED50 (95% CL) [12],effect on motor coordination (rotarod performance) [15],also measured
"CO[C@@]12CCC(=O)[C@]3(C)Oc4c(O)ccc5c4[C@@]31CCN(C)[C@@H]2C5 [14-MM (4), 14-methoxymetopon, reference compound]",2.66 ± 0.58,99 ± 5,0.024,74,51,36.8 ± 12.4,100 ± 9,18.6 ± 0.98,4.06 ± 0.89,99 ± 8,12.8 ± 1.5,0.31 ± 0.07,93 ± 5,181 ± 9,68.9 ± 9.2,–,–,–,Ki ([3]; read-out: Ki µOR): 0.25 ± 0.04 nM
"CO[C@@]12CCC(=O)[C@@H]3Oc4c(O)ccc5c4[C@@]31CCN(C)[C@@H]2C5 [14-OMO (3), 14-O-methyloxymorphone, reference compound]",1.21 ± 0.48,95 ± 5,0.014,34,38,38.5 ± 6.9,102 ± 4,9.08 ± 0.31,5.42 ± 0.93,98 ± 3,10.3 ± 1.8,0.19 ± 0.14,90 ± 8,135 ± 29,65.9 ± 6.5,0.27 ± 0.09,–,–,–
Oc1ccc2c3c1O[C@H]1[C@@H](O)C=C[C@H]4[C@@H](C2)N(CCc2ccccc2)CC[C@@]341 [Compound 1a],–,–,–,98,374,–,–,24.5 ± 8.7,315 ± 110,105 ± 8,93.5 ± 2.9,2.87 ± 0.91,107 ± 5,–,–,0.25 ± 0.09,0.11 (0.027–0.40)^b mg/kg,did not affect the evoked locomotor activity of mice,κOR % stim. [10]: 19 ± 2^b*** %; δOR % stim. [11]: 138 ± 17^b %; fold increased affinity at the human µOR vs. N-methyl parent [3]: ca. 13 fold; fold higher antinociceptive potency vs. N-methyl parent ([12]; tail-flick test): 28 fold; fold more effective than morphine (antinociception) [13]: 22 fold; fold increase in µOR agonist potency vs. N-methyl parent [14]: 2- to 3 fold; µOR % stim. [14]: 113 ± 8^b %; fold enhanced µOR agonist potency vs. N-methyl parent [8]: 4- to 5 fold
O=C1CC[C@@]2(O)[C@H]3Cc4ccc(O)c5c4[C@@]2(CCN3CCc2ccccc2)[C@H]1O5 [Compound 2a],–,–,–,–,–,–,–,–,–,–,–,–,–,–,–,–,0.15 (0.058–0.40)^b mg/kg,did not affect the evoked locomotor activity of mice,–
"CO[C@@]12CCC(=O)[C@@H]3Oc4c(O)ccc5c4[C@@]31CCN(CCc1ccccc1)[C@@H]2C5 [Compound 3a, 4,5α-Epoxy-3-hydroxy-14-methoxy-N-phenethylmorphinan-6-one]",1.26 ± 0.63,98 ± 10,0.014,9.5,83,9.34 ± 0.6,107 ± 5,1.81 ± 0.68,0.6 ± 0.07,93 ± 2,15.8 ± 8.8,0.078 ± 0.004,88 ± 12,144 ± 9,35.4 ± 7.5,0.19 ± 0.02,–,lack of the mixed µ/δOR agonists 3a and 4a to induce motor dysfunction,melting point: 180 to 182 °C; fold higher δOR agonist potency vs. N-methyl counterpart [4]: 4 fold
"CO[C@@]12CCC(=O)[C@]3(C)Oc4c(O)ccc5c4[C@@]31CCN(CCc1ccccc1)[C@@H]2C5 [Compound 4a, 4,5α-Epoxy-3-hydroxy-14-methoxy-5-methyl-N-phenethylmorphinan-6-one]",1.86 ± 0.84,102 ± 13,0.024,6.0,147,9.54 ± 2.33,103 ± 2,1.45 ± 0.31,0.55 ± 0.16,96 ± 4,35.3 ± 5.5,0.15 ± 0.07,98 ± 12,334 ± 114,51.3 ± 10.4,0.24 ± 0.03,–,lack of the mixed µ/δOR agonists 3a and 4a to induce motor dysfunction,melting point: 179 to 180 °C; fold higher δOR agonist potency vs. N-methyl counterpart [4]: 4 fold; fold decrease in κOR affinity vs. N-methyl parent [7]: ca. 3 fold
"CN1CC[C@]23c4c5ccc(O)c4O[C@H]2[C@@H](O)C=C[C@H]3[C@H]1C5 [Morphine (1), Morphine, reference compound]",–,–,–,–,–,–,–,–,–,–,–,–,–,–,–,–,–,caused a significant deficit in rotarod performance,–
"CN1CC[C@]23c4c5ccc(O)c4O[C@H]2C(=O)CC[C@@]3(O)[C@H]1C5 [Oxymorphone (2), oxymorphone, reference compound]",–,–,–,–,–,–,–,–,–,–,–,–,–,–,–,–,0.35 (0.16–0.77)^b mg/kg,caused a significant deficit in rotarod performance,–

# From paper PMC7101422, “N-Phenethyl Substitution in 14-Methoxy-N-methylmorphinan-6-ones Turns Selective µ Opioid Receptor Ligands into Dual µ/δ Opioid Receptor Agonists” (Scientific Reports, 2020)
